Measured values from ChEMBL document CHEMBL1134667, “Physicochemical determinants of passive membrane permeability: role of solute hydrogen-bonding potential and volume” (J Med Chem, 2001).

Columns and labels:
[1] = Partition coefficient (logP) (heptane); conditions: heptane/water
[2] = Partition coefficient (logP); conditions: octanol/water
[3] = Partition coefficient (logP) (heptane/glycol); conditions: heptane/ethylene glycol
[4] = Basolateral to apical effective permeability; conditions: not told
[5] = Apical to basolateral effective permeability; conditions: not told

Row | SMILES | logP [1] | logP [2] | logP [3] | Papp B→A [4] | Papp A→B [5]
1 | CC(=O)N[C@@H](C(=O)NCCc1ccccc1)C(C)C | -2.64 | 1.59 | -3.77 |  | 
2 | CC(=O)N[C@H](Cc1ccccc1)C(=O)NCCc1ccccc1 | -2 | 2.32 | -3.7 |  | 
3 | CC(=O)NCC(=O)NCCc1ccccc1 | -3.73 | 0.48 | -5 | 20.6 ×10⁻⁶ cm/s | 21.9 ×10⁻⁶ cm/s
4 | CNC(=O)[C@@H](Cc1ccccc1)NC(=O)[C@H](NC(C)=O)C(C)C | -5.33 | 0.66 | -5.79 | 1.84 ×10⁻⁶ cm/s | 0.91 ×10⁻⁶ cm/s
5 | CC(=O)N[C@H](CC1CCCCC1)C(=O)NCCc1ccccc1 | -0.9 | 3.13 | -3.41 | 58.4 ×10⁻⁶ cm/s | 58.3 ×10⁻⁶ cm/s
